From patent publication US11976063B2, “Pharmaceutical composition comprising berberine and ursodeoxycholic acid for the treatment of various diseases or disorders” (priority 2014, dated 2024)

Assays:
[1] = test system: high fat diet (HFD) induced non-alcoholic fatty liver mice; experiment: High fat diet induced non-alcoholic fatty liver mice model (Example 5); assay type: in vivo, NIH male mice; details: for Body weight / Weight ratio of liver / ALT / AST / HDL-C / LDL-C / MDA / SOD / TC / TG: i.g. once daily, HFD, mean ± S.E.M; for ALT / AST / HDL-C / LDL-C / MDA / SOD / TC / TG: serum
From the text: This example describes an in vivo efficacy study of BUDCA disclosed in the present invention using a high fat diet (HFD) induced non-alcoholic fatty liver mice model.
91 NIH male mice of 4 weeks old were obtained from Vital River Laboratories (Beijing, China). After acclimatization for one week, 13 mice were selected as control group (Group 1, G1) with normal chow diet fed, and the other 78 mice were fed with HFD (in which 40% of calories is from fat) for 4 weeks to establish an animal model resembling the pathophysiology of non-alcoholic fatty liver in human.
Following 4 weeks of high fat dietary intervention, the 78 mice were divided into 6 groups according to body weight (n=13 per group): • Group 2, G2: Vehicle control (0.5% CMC-Na solution) • Group 3, G3: Low-dose group of BUDCA (30 mg/kg) • Group 4, G4: Middle-dose group of BUDCA (100 mg/kg) • Group 5, G5: High-dose group of BUDCA (300 mg/kg) • Group 6, G6: BBR control group (Berberine HCl, 150 mg/Kg) • Group 7, G7: UDCA control group (Ursodeoxycholic acid, 150 mg/Kg)
The mice from G2 to G7 were administered with the corresponding testing articles indicated above once daily by intragastric gavage. HFD continued throughout the duration of the treatment of 6 weeks. The normal mice (G1) were treated with vehicle (0.5% CMC-Na solution) via intragastric gavage. At the end of experiment, the following biochemical parameters were measured and tests were carried out: • Body weight, the weight ratio of liver • Total cholesterol (TC) and triglyceride (TG) levels, high density lipoprotein cholesterol (HDL-C) and low density lipoprotein cholesterol (LDL-C) levels • Alanine aminotransferase (ALT) and aspartate aminotransferase (AST) levels • Superoxide dismutase (SOD) activity and malondialdehyde (MDA) level • Oral glucose tolerance test (OGTT) • Histopathological examination of liver ([…] staining)
After 6 weeks treatment, blood was collected via retro-orbital bleeding of each 12-hour fasted animal. Liver was harvested by surgery for histopathology analysis after weight measurement. Then the serum was isolated for the determination of TC, TG, HDL-C, LDL-C, ALT, AST, SOD and MDA.
One week before sacrifice (Week 5 of treatment), an oral glucose tolerance test (OGTT) was performed in 12-hour fasted animals. For the OGTT, all mice received an oral glucose challenge at 2.0 g/Kg and the blood glucose concentrations were determined by glucometer (ACCU-CHEK Active, Roche) at 0, 30, 60, 90 and 120 min.
The liver tissue was histopathologically evaluated by […] staining after frozen section.

[2] = test system: high fat diet (HFD) induced fatty liver golden hamster; experiment: High fat diet-induced fatty liver golden hamster model (Example 6); assay type: in vivo, golden hamsters; details: for Serum TC level on Day 0 / Serum TG level on Day 0: Day 0 (before treatment); for Serum TC level on Day 0 / Serum TG level on Day 0 / Serum TC level, Week 1 / Serum TG level, Week 1 / Serum TC level, Week 3 / Serum TG level, Week 3 / Serum TC level, Week 5 / Serum TG level, Week 5 / Serum TC level, Week 7 / Serum TG level, Week 7: X ± s, n = 8
From the text: This example describes an in vivo efficacy study of BUDCA salt disclosed in the present invention using a high fat diet (HFD) induced fatty liver golden hamster model.
Forty-two SPF golden hamsters with the body weight of 90-100 g were acquired from Vital River Laboratory Animal Technology Co., Ltd. After acclimatization for one week, eight hamsters were selected as normal control group (Group 1), which were fed with normal chow diet. The rest thirty-four hamsters were fed with HFD for two weeks to establish a fatty liver animal model resembling the pathophysiology of NAFLD in human.
For the thirty-four hamsters induced with HFD, twenty-four of them with TC level of 17.96±1.70 mmol/L at the fourteenth day post of HFD were selected and randomized into three groups (n=8 per group): • Group 2: Model control (0.5% tragacanth solution 10 ml/kg); • Group 3: Low-dose (BUDCA 50 mg/kg); • Group 4: High-dose (BUDCA 200 mg/kg)
The hamsters from Group 2 to 4 were treated with corresponding testing articles indicated above once a day by intragastric gavage, and HFD continued throughout the duration of the 7-week administration. The normal hamsters in Group 1 were treated with 0.5% tragacanth solution (10 ml/kg) by intragastric gavage. Serum lipid and blood glucose level, liver function index, food intake and body weight were measured throughout the study. After the 7-week administration, the hamsters were sacrificed and dissected for the general observation and histopathological analysis of liver tissue.

[3] = BUDCA 50 mg/kg i.g. once a day, Week 1
[4] = BUDCA 200 mg/kg i.g. once a day, Week 1
[5] = BUDCA 200 mg/kg i.g. once a day
[6] = both high-dose and low-dose group, P<0.01, FIG. 16
[7] = both medicated groups, P<0.01, FIG. 22

## COc1ccc2cc3[n+](cc2c1OC)CCc1cc2c(cc1-3)OCO2.C[C@H](CCC(=O)[O-])[C@H]1CC[C@H]2[C@@H]3[C@@H](O)C[C@@H]4C[C@H](O)CC[C@]4(C)[C@H]3CC[C@]12C [BUDCA, berberine ursodeoxycholate]
[1]; BUDCA 30 mg/kg (G3), 6 weeks
  Body weight: 40.3 ± 1.18 g
  Weight ratio of liver: 4.33 ± 0.13%
  ALT: 30.6 ± 4.37 U/L
  AST: 148.3 ± 7.15 U/L
  HDL-C: 2.33 ± 0.15 mmol/L
  LDL-C: 1.05 ± 0.09 mmol/L
  MDA: 12.34 ± 2.89
  SOD: 61.05 ± 11.59 U/mL
  TC: 5.49 ± 0.25 mmol/L
  TG: 1.18 ± 0.20 mmol/L
[1]; BUDCA 100 mg/kg (G4), 6 weeks
  Body weight: 41.7 ± 1.59 g
  Weight ratio of liver: 4.15 ± 0.09%
  ALT: 29.0 ± 3.95 U/L
  AST: 140.2 ± 16.32 U/L
  HDL-C: 2.26 ± 0.22 mmol/L
  LDL-C: 1.06 ± 0.11 mmol/L
  MDA: 8.02 ± 1.08 µM
  SOD: 91.83 ± 4.90 U/mL
  TC: 5.28 ± 0.50 mmol/L
  TG: 0.92 ± 0.06 mmol/L
[1]; BUDCA 300 mg/kg (G5), 6 weeks
  Body weight: 41.5 ± 1.16 g
  Weight ratio of liver: 4.27 ± 0.10%
  ALT: 27.8 ± 3.08 U/L
  AST: 163.5 ± 11.63 U/L
  HDL-C: 2.48 ± 0.15 mmol/L
  LDL-C: 1.03 ± 0.22 mmol/L
  MDA: 7.78 ± 1.66 µM
  SOD: 97.54 ± 4.88 U/mL
  TC: 5.95 ± 0.54 mmol/L
  TG: 0.85 ± 0.06 mmol/L
[1]; BUDCA 30-300 mg/kg, berberine or ursodeoxycholic acid monotherapy 150 mg/Kg, 6 weeks
  Effect on symptoms of non-alcoholic fatty liver (overall efficacy): dose-dependently ameliorated symptoms of non-alcoholic fatty liver
[1]; BUDCA treated animals, 6 weeks i.g.
  Gastrointestinal side effects at the time of sacrifice: no gastrointestinal side effects were observed
[2]; 50 vs 200 mg/kg, 7 weeks
  Dose dependence of the effects: relatively dose-dependent
[2]; BUDCA 50 mg/kg group
  Serum TC level on Day 0: 18.14 ± 1.13 mmol/L
  Serum TG level on Day 0: 5.97 ± 1.19 mmol/L
[2]; [3]
  Serum TC level, Week 1: 9.33 ± 1.52 mmol/L
  Serum TG level, Week 1: 3.60 ± 0.78 mmol/L
[2]; BUDCA 50 mg/kg i.g. once a day
  Serum TC level, Week 3: 7.58 ± 2.01 mmol/L
  Serum TG level, Week 3: 2.98 ± 1.31 mmol/L
  Serum TC level, Week 5: 10.50 ± 2.89 mmol/L
  Serum TG level, Week 5: 4.51 ± 3.10 mmol/L
  Serum TC level, Week 7: 9.78 ± 2.58 mmol/L
  Serum TG level, Week 7: 3.88 ± 1.21 mmol/L
[2]; BUDCA 200 mg/kg group
  Serum TC level on Day 0: 18.18 ± 1.10 mmol/L
  Serum TG level on Day 0: 6.31 ± 1.75 mmol/L
[2]; [4]
  Serum TC level, Week 1: 7.51 ± 0.71 mmol/L
  Serum TG level, Week 1: 3.00 ± 0.67 mmol/L
[2]; [5]
  Serum TC level, Week 3: 6.75 ± 1.00 mmol/L
  Serum TG level, Week 3: 2.68 ± 1.09 mmol/L
  Serum TC level, Week 5: 5.38 ± 1.24 mmol/L
  Serum TG level, Week 5: 3.04 ± 1.68 mmol/L
  Serum TC level, Week 7: 4.95 ± 0.84 mmol/L
  Serum TG level, Week 7: 1.90 ± 0.66 mmol/L
[2]; [6]
  AI value (arterial stiffness index) vs model control group: significantly decreased
  Serum LDL-c level vs model control group: significantly decreased
  Value of TC/HDL-c vs model control group: significantly decreased
[2]; both low-dose (50 mg/kg) and high-dose (200 mg/kg) group, P<0.01
  TC level vs model control group: significantly declined
[2]; both medicated groups (50 and 200 mg/kg), P>0.05
  Food intake vs model control group: no significant difference on food intake
[2]; both medicated groups, after 7-week administration, P<0.01, FIG. 17
  Serum AST level vs model control group: significantly declined
[2]; both medicated groups, after 7-week administration, P<0.01, FIG. 18
  Serum ALT level vs model control group: significantly declined
[2]; both medicated groups, FIG. 20
  Color of livers vs model control group: improved
[2]; both medicated groups, P<0.01, FIG. 19
  Liver weight vs model control group: significantly decreased
[2]; both medicated groups, P<0.01, FIG. 21
  Content of TC and TG in liver vs model control group: significantly decreased
[2]; [7]
  Inflammation score of liver tissue vs model control group: significantly decreased
  Positive area for oil red vs model control group: significantly decreased
[2]; high-dose group (200 mg/kg), Week 1 and Week 7, P<0.01
  TG level vs model control group, Week 1 and Week 7: significantly declined
[2]; high-dose group (200 mg/kg), after 7-week administration
  Serum LDL-c level, value of TC/HDL-c and AI value compared with normal control group: very similar to those of normal control group
[2]; high-dose group (200 mg/kg), P<0.01
  HDL-c level vs model control group: significantly declined
[2]; high-dose group (200 mg/kg), P<0.05
  Body weight, first week of treatment: significantly reduced in the first week of treatment
[2]; high-dose group (200 mg/kg), P>0.05
  Body weight, rest time of treatment: no significant changes were observed in the rest time of treatment
[2]; high-dose group (200 mg/kg), similar to normal control group
  Color of livers: ruddy
[2]; low-dose and high-dose group, at sacrifice, P>0.05
  Body weight vs model control group: no significant change observed
[2]; low-dose group (50 mg/kg), Week 1, P<0.01
  TG level vs model control group, Week 1: significantly declined
[2]; low-dose group (50 mg/kg), P>0.05
  Body weight throughout the study: No significant changes were observed
